Tests used:
[1] = Tableting and stability of R&D formulations with other citric acid grades; type: physicochemical; conditions: R&D formulations similar to Formula E1
Staphyloccocus aureus = conditions: 1 mg/mL solution in a 20% dimethyl sulfoxide water solution; cited from earlier work
germ = assay: R&D germ kill testing of aqueous citric acid solutions; type: cell-based; conditions: aqueous solutions containing 2.5% w/v
Text: As discussed above, lemon juice contains 5-8% citric acid, amongst other potentially disinfecting ingredients like malic acid, ascorbic acid, and essential oils.

| Structure (SMILES) | suitability for tablet formulation (hygroscopicity, tableting) [1] | activity against Staphyloccocus aureus (Staphyloccocus aureus) | germ kill results (germ) |
| --- | --- | --- | --- |
| O=C(O)CC(O)(CC(=O)O)C(=O)O [Citric acid anhydrous, citric acid anhydrous] | too hygroscopic for use in a tablet formulation | – | – |
| O=C(O)CC(O)(CC(=O)O)C(=O)O [citric acid] | – | inactive | did not produce consistent or satisfactory germ kill results |

From US20230025067A1, “SOLID LOW FOAMING IN DISSOLUTION AND LOW PH ALL-PURPOSE CLEANER AND DISINFECTANT COMPOSITIONS” (Reckitt Benckiser LLC, priority 2021, published 2023)
